These results are taken from patent publication US5672594A, “L-erythrosyl nucleosides” (Genencor International, Inc., priority 1994, dated 1997).

SMILES strings stand for the structures. Converted amounts (≈) assume the structure as drawn. Where two headings read alike, the source gives them in different places.

In series [1] the test system is OM-1 (colon). The series is described as follows: In vitro growth inhibition of OM-1 tumor cells (radiometric BACTEC). To be noted: Homo sapiens, concentration required to kill 50% of the untreated cancer cells. The class given is cell-based. The text has this: (§1) CELL LINES: Eight different established human cell lines CALU (lung), COLO320 (colon), H578St (breast), HT-29 (colon), MCF-7 (breast), OM-1 (colon), SKLU (lung) and SKMES (lung), and two control cell lines (bone marrow andr fibroblasts) were utilized.
(§2) All cell lines were obtained from the Tumor Cloning Laboratory, Institute for Drug Development, Cancer Therapy and Research Center, San Antonio, Tex. All cell lines grew as monolayers in the appropriate culture medium supplemented with heat-inactivated calf serum. All reagents were obtained from Grand Island Biological Co., Grand Island, N.Y. […]
(§3) RADIOMETRIC MEASUREMENT OF GROWTH INHIBITION: Growth inhibition was assessed with the BACTEC System 460 (Johnston Laboratories, Towson, Md.) after addition of the antitumor agent in the respective growth medium containing ^14 C-glucose at a final concentration of 2 μCi/ml. […]
(§4) Two mls of the tumor cell suspension containing radioactive glucose were seeded into sterile, disposable 15 ml vials by injection through self-sealing rubber-aluminum caps. […] Chemotherapy sensitivity was calculated by comparing the growth index values of drug-treated vials to that observed in control vials. […]
(§5) The data presented in Table I are compared to results achieved with 5-FU as the control. […] In this regard, a therapeutic ratio for a given compound is typically determined by the following calculation. […]

The subject of series [2] is CALU (lung). The experiment in a line: In vitro growth inhibition of CALU tumor cells (radiometric BACTEC). To be noted: for IC50: Homo sapiens. Format: cell-based, human.
From the text: as §1
(§6) All cell lines were obtained from the Tumor Cloning Laboratory, Institute for Drug Development, Cancer Therapy and Research Center, San Antonio, Tex. All cell lines grew as monolayers in the appropriate culture medium supplemented with heat-inactivated calf serum. All reagents were obtained from Grand Island Biological Co., Grand Island, N.Y.
(§7) The iv formulations of the compounds of the present invention were prepared with sterile buffered saline and stored at -70° C. until required for testing.
(§8) Following trypsinization, tumor cells were suspended in tissue culture medium and exposed to the antitumor agents continuously at three different concentrations: 10, 1 and 0.1 μg/ml.
(§9) RADIOMETRIC MEASUREMENT OF GROWTH INHIBITION: Growth inhibition was assessed with the BACTEC System 460 (Johnston Laboratories, Towson, Md.) after addition of the antitumor agent in the respective growth medium containing ^14 C-glucose at a final concentration of 2 μCi/ml.
(§10) Two mls of the tumor cell suspension containing radioactive glucose were seeded into sterile, disposable 15 ml vials by injection through self-sealing rubber-aluminum caps. […] The seeded vials were then incubated at 37° C. Measurement of the release of ^14 CO2 resulting from the metabolism of ^14 C-glucose were performed on days 6, 9, 12, and 15 in the BACTEC instrument. This instrument flushes the ^14 CO2 containing air out of the vials into an ionization chamber that converts dpm to growth index values. […] Each data point represents triplicate values.
(§11) All compounds were dosed on an equimilimolar basis. […] [formula]

The conditions of series [3]: known drug, background; cited from earlier work.
Series [4] can be described thus: In vitro growth inhibition/survival, bone marrow control cells (radiometric BACTEC). Format: cell-based. To be noted: human, continuous exposure (10, 1 and 0.1 μg/ml tested; concentration of this value not given).
From the text: as §1, §6, §7, §8, §9
Two mls of the tumor cell suspension containing radioactive glucose were seeded into sterile, disposable 15 ml vials by injection through self-sealing rubber-aluminum caps. […]

The subject of series [5] is HS578T (breast). The experiment in a line: In vitro growth inhibition of HS578T tumor cells (radiometric BACTEC). The class given is cell-based. The following applies: Homo sapiens, Hs-578T, concentration required to kill 50% of the untreated cancer cells.
From the text: as §1, §2, §3, §4, §5

For series [6], the system named is MCF-7 (breast). The experiment in a line: In vitro growth inhibition of MCF-7 tumor cells (radiometric BACTEC). Format: cell-based, human. The following applies: for IC50: Homo sapiens, MCF7.
From the text: as §1, §6, §7, §8, §9, §10, §11

Series [7] concerns COLO320 (colon). The series is described as follows: In vitro growth inhibition of COLO320 tumor cells (radiometric BACTEC). The class given is cell-based. The following applies: Homo sapiens, COLO 320, concentration required to kill 50% of the untreated cancer cells.
From the text: as §1, §2, §3, §4, §5

Series [8] deals with SKMES (lung). The series is described as follows: In vitro growth inhibition of SKMES tumor cells (radiometric BACTEC). Format: cell-based, human. To be noted: for IC50: Homo sapiens.
From the text: as §1, §6, §7, §8, §9, §10, §11

The test system of series [9] is HT29 (colon). The series is described as follows: In vitro growth inhibition of HT29 tumor cells (radiometric BACTEC). Format: cell-based. The following applies: Homo sapiens, HT-29, concentration required to kill 50% of the untreated cancer cells.
From the text: as §1, §2, §3, §4, §5

In series [10] the test system is SKLU (lung). The experiment in a line: In vitro growth inhibition of SKLU tumor cells (radiometric BACTEC). To be noted: Homo sapiens, concentration required to kill 50% of the untreated cancer cells. The class given is cell-based.
From the text: as §1, §2, §3, §4, §5

Turning to `O=c1[nH]cc(F)c(=O)[nH]1` [5-FU, 5-fluorouracil], the IC50 in [1] is 1.47 µg/mL (≈ 11.3 µM); in series [2], under 0.6 µg/mL; in series [5], over 0.6 µg/mL; in series [6], under 0.6 µg/mL; in series [7], under 0.6 µg/mL; in series [8], under 0.6 µg/mL. The figures for the IC50 in [9] and in [10] were 0.613 µg/mL (≈ 4.71 µM) and 1.05 µg/mL (≈ 8.06 µM), respectively. In addition, the side effects result in series [3] was “nausea, vomiting, diarrhea, leukopenia, thrombocytopenia, alopecia”. Further, the viability in series [4] stood at 38.6%.

Take `O=c1[nH]c(=O)n([C@@H]2OC[C@H](O)[C@@H]2O)cc1F` [α-L-erythrofuranosyl-5-fluorouracil]: the “% SURVIVAL TUMOR” value came out at 85.3% in series [2] (CALU, continuous exposure (10, 1 and 0.1 μg/ml tested; concentration of this value not given)); 52.7% in series [6] (MCF-7, continuous exposure, concentration of this value not given); 67.4% in series [8] (SKMES, continuous exposure, concentration of this value not given). In addition, the IC50 was over 10 µg/mL in series [2] (CALU, concentration required to kill 50% of the untreated cancer cells, read-out: IC 50); over 10 µg/mL in [6] (MCF-7, concentration required to kill 50% of the untreated cancer cells, read-out: IC 50); over 10 µg/mL in series [8] (SKMES, concentration required to kill 50% of the untreated cancer cells, read-out: IC 50). The viability in [4] is 104%.

Usually viability stands for a read-out of living cells in per cent, often relative to untreated cells.
